# Literature values, collected in US10557153B2, “Degradation of lignocellulosic material” (DSM IP ASSETS B.V., priority 2008, dated 2020).
# Columns and labels:
# Settings in all cases: S (Cellobiose) 2.5 g/L
# [1] = tested on: A. oryzae beta-glucosidase
# [2] = tested on: Talaromyces beta-glucosidase
# [3] = tested on: Trichoderma beta-glucosidase
# [4] = tested on: A. niger beta-glucosidase
structure (smiles),measurement,setting,value
OC[C@H]1O[C@@H](O[C@H]2[C@H](O)[C@@H](O)C(O)O[C@@H]2CO)[C@H](O)[C@@H](O)[C@@H]1O (stereo partly shown) [cellobiose],Vmax (cellobiose),[1],10131 gr/gr protein/hr
same,Vmax (cellobiose),[2],1080 gr/gr protein/hr
same,Vmax (cellobiose),[3],470 gr/gr protein/hr
same,Vmax (cellobiose),[4],400 gr/gr protein/hr
